Reference: US20240158383A1, “RIBONUCLEOTIDE REDUCTASE (RNR) INHIBITORS AND USES THEREOF” (Boundless Bio, Inc., priority 2021, published 2024)

Tests used:
RNR (RNR1:RNR2) = RNR (RNR1:RNR2) (Homo sapiens (Human), UniProt P23921+P31350); assay: RNR enzyme activity, rapid-fire mass spectrometry (RFMS) assay; assay type: biochemical; details: [RNR] 50 nM, 1:1 RNR1:RNR2, [CDP] 5 μM, [ATP] 1 mM, 37° C., 45 min
Outline: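 RNR1:RNR2 (1:1, 50 nM final) was preincubated 15 min at room temperature with compound (10 nM–30 μM), then reacted 45 min at 37° C. with 5 μM CDP and 1 mM ATP, without NADPH. Reactions were stopped with 6% formic acid and read by RapidFire mass spectrometry.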

[1] = test system: pCHK1 (S345) in Colo320 DM cells; assay: CHK1 cellular activity (phospho-CHK1 AlphaLisa); assay type: cell-based, human; details: Homo sapiens, COLO 320DM, 16 h, compound overnight (approximately 16 hours)
Outline: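 Colo320 DM cells (50,000/well, RPMI-1640 with 10% FBS) were treated with compound overnight (~16 h) at 37 °C, final DMSO <0.5%. Lysates were assayed for pCHK1 (S345) by AlphaLisa SureFire, a replication-stress marker downstream of RNR inhibition.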

Sequence of RNR (RNR1:RNR2) (P23921 whole entry): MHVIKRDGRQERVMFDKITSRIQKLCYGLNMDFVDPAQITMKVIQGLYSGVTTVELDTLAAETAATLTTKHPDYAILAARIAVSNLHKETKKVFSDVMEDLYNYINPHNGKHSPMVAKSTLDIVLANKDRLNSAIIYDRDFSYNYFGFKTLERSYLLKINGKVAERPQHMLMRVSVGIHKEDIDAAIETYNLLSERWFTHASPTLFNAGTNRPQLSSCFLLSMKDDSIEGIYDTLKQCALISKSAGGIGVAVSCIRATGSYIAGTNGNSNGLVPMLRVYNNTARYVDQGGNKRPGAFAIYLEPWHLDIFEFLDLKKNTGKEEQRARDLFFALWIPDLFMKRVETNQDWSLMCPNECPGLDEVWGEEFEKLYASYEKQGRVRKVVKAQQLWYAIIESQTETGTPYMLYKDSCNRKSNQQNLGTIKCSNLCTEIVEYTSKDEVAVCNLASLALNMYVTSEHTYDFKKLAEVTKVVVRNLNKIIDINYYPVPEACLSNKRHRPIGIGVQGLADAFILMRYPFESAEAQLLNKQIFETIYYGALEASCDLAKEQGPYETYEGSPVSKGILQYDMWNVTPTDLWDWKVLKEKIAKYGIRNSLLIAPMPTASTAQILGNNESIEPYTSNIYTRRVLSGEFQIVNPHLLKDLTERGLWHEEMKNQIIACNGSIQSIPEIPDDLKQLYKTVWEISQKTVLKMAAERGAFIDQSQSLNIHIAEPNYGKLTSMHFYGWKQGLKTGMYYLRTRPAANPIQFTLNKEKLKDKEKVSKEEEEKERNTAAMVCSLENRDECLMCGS
Sequence of RNR (RNR1:RNR2) (P31350 whole entry): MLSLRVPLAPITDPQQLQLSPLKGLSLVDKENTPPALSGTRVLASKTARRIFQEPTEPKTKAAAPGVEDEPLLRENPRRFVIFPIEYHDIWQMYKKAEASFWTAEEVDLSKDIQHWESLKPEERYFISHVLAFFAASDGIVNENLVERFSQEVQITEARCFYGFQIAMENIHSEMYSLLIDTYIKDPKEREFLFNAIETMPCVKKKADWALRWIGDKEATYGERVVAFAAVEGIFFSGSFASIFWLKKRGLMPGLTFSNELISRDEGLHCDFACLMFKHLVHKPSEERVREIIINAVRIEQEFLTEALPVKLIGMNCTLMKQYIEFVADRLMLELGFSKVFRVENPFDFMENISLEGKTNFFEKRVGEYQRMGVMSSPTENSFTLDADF

`Cc1ccc(F)c([C@@H](C)[C@H](NS(=O)(=O)c2ccc(F)c(C#N)c2)c2nn[nH]n2)c1C` [Example 37, 3-cyano-4-fluoro-N-((1S,2R)-2-(6-fluoro-2,3-dimethylphenyl)-1-(2H-tetrazol-5-yl)propyl)benzensulfonamide] gave an IC50 (RNR (RNR1:RNR2)) of 1 to 5 µM and an IC50 [1] of 50 to 100 µM.

In the case of `Cc1ccc(F)c([C@@H](C)[C@H](NS(=O)(=O)c2ccc(F)c(C(N)=O)c2)c2nn[nH]n2)c1C` [Example 38, 2-fluoro-5-(N-((1S,2R)-2-(6-fluoro-2,3-dimethylphenyl)-1-(2H-tetrazol-5-yl)propyl)sulfamoyl)benzamide], the IC50 (RNR (RNR1:RNR2)) is reported as 1 to 5 µM and the IC50 [1] is reported as 50 to 100 µM.

With `Cc1ccc(F)c([C@@H](C)[C@H](NS(=O)(=O)c2ccc(Cl)cc2Cl)c2nn[nH]n2)c1C` [Example 39, 2,4-dichloro-N-((1S,2R)-2-(6-fluoro-2,3-dimethylphenyl)-1-(2H-tetrazol-5-yl)propyl)benzenesulfonamide] the IC50 (RNR (RNR1:RNR2)) was 0.1 to 1 µM and the IC50 [1] was 10 to 30 µM.

`Cc1ccc(F)c([C@@H](C)[C@H](NS(=O)(=O)c2cc(Cl)c(Cl)cc2F)c2nn[nH]n2)c1C` [Example 40, 4,5-dichloro-2-fluoro-N-((1S,2R)-2-(6-fluoro-2,3-dimethylphenyl)-1-(2H-tetrazol-5-yl)propyl)benzenesulfonamide] was tested, and the IC50 (RNR (RNR1:RNR2)) was 1 to 5 µM and the IC50 [1] was 50 to 100 µM.

In the case of `Cc1ccc(F)c([C@@H](C)[C@H](NS(=O)(=O)c2ccc(Cl)cc2O)c2nn[nH]n2)c1C` [Example 41, 4-chloro-N-((1S,2R)-2-(6-fluoro-2,3-dimethylphenyl)-1-(2H-tetrazol-5-yl)propyl)-2-hydroxybenzenesulfonamide], the IC50 (RNR (RNR1:RNR2)) is reported as 0.1 to 1 µM and the IC50 [1] is reported as 50 to 100 µM.

Work on `Cc1cc(S(=O)(=O)N[C@H](c2nn[nH]n2)[C@H](C)c2c(F)ccc(C)c2C)c(F)cc1Cl` [Example 42] yielded an IC50 (RNR (RNR1:RNR2)) of 1 to 5 µM and an IC50 [1] of 50 to 100 µM.

For `Cc1ccc(F)c([C@@H](C)[C@H](NS(=O)(=O)c2cn(C)nc2C)c2nn[nH]n2)c1C` [Example 43], the IC50 (RNR (RNR1:RNR2)) was 1 to 5 µM and the IC50 [1] was 50 to 100 µM.

With `Cc1ccc(F)c([C@@H](C)[C@H](NS(=O)(=O)c2cc(Cl)ccc2F)c2nn[nH]n2)c1C` [Example 44] the IC50 (RNR (RNR1:RNR2)) was 1 to 5 µM and the IC50 [1] was 50 to 100 µM.

In the case of `Cc1ccc(F)c([C@@H](C)[C@H](NS(=O)(=O)c2cc(Cl)ccc2Cl)c2nn[nH]n2)c1C` [Example 45], the IC50 (RNR (RNR1:RNR2)) is reported as 5 to 30 µM and the IC50 [1] is reported as 50 to 100 µM.

`Cc1ccc(F)c([C@@H](C)[C@H](NS(=O)(=O)c2ccc(Cl)c3nonc23)c2nn[nH]n2)c1C` [Example 46] gave an IC50 (RNR (RNR1:RNR2)) of 0.1 to 1 µM and an IC50 [1] of 50 to 100 µM.

Work on `Cc1ccc(F)c([C@@H](C)[C@H](NS(=O)(=O)c2cccc3[nH]c(=O)ccc23)c2nn[nH]n2)c1C` [Example 47] yielded an IC50 (RNR (RNR1:RNR2)) of 0.1 to 1 µM and an IC50 [1] of 50 to 100 µM.

`Cc1cc(S(=O)(=O)N[C@H](c2nn[nH]n2)[C@H](C)c2c(F)ccc(C)c2C)ccc1Cl` [Example 48] gave an IC50 (RNR (RNR1:RNR2)) of 0.1 to 1 µM and an IC50 [1] of 10 to 30 µM.

For `Cc1ccc(F)c([C@@H](C)[C@H](NS(=O)(=O)c2ccc(Cl)c(F)c2)c2nn[nH]n2)c1C` [Example 49], the IC50 (RNR (RNR1:RNR2)) was 0.1 to 1 µM and the IC50 [1] was 10 to 30 µM.

`Cc1ccc(F)c([C@@H](C)[C@H](NS(=O)(=O)c2ccc(Cl)cc2C(F)F)c2nn[nH]n2)c1C` [Example 50, 4-chloro-2-(difluoromethyl)-N-((1S,2R)-2-(6-fluoro-2,3-dimethylphenyl)-1-(2H-tetrazol-5-yl)propyl)benzenesulfonamide] was tested, and the IC50 (RNR (RNR1:RNR2)) was 0.1 to 1 µM and the IC50 [1] was 30 to 50 µM.

With `Cc1ccc(Cl)cc1S(=O)(=O)N[C@H](c1nn[nH]n1)[C@H](C)c1c(F)ccc(C)c1C` [Example 53, 5-chloro-N-((1S,2R)-2-(6-fluoro-2,3-dimethylphenyl)-1-(2H-tetrazol-5-yl)propyl)-2-methylbenzenesulfonamide] the IC50 (RNR (RNR1:RNR2)) was 5 to 30 µM and the IC50 [1] was 50 to 100 µM.

In the case of `[2H]C([2H])([2H])Oc1cc(Cl)ccc1S(=O)(=O)N[C@H](c1nn[nH]n1)[C@H](C)c1c(F)ccc(C)c1C` [Example 54, 4-chloro-N-((1S,2R)-2-(6-fluoro-2,3-dimethylphenyl)-1-(2H-tetrazol-5-yl)propyl)-2-(methoxy-d3)benzenesulfonamide], the IC50 (RNR (RNR1:RNR2)) is reported as no more than 0.1 µM and the IC50 [1] is reported as 10 to 30 µM.

`Cc1ccc(F)c([C@@H](C)[C@H](NS(=O)(=O)c2ccc(Cl)c(C)c2Cl)c2nn[nH]n2)c1C` [Example 55, 2,4-dichloro-N-((1S,2R)-2-(6-fluoro-2,3-dimethylphenyl)-1-(2H-tetrazol-5-yl)propyl)-3-methylbenzenesulfonamide] gave an IC50 (RNR (RNR1:RNR2)) of no more than 0.1 µM and an IC50 [1] of 10 to 30 µM.

In the case of `Cc1ccc(F)c([C@@H](C)[C@H](NS(=O)(=O)c2c(F)cc(Cl)cc2F)c2nn[nH]n2)c1C` [Example 56, 4-chloro-2,6-difluoro-N-((1S,2R)-2-(6-fluoro-2,3-dimethylphenyl)-1-(2H-tetrazol-5-yl)propyl)benzenesulfonamide], the IC50 (RNR (RNR1:RNR2)) is reported as 0.1 to 1 µM and the IC50 [1] is reported as 50 to 100 µM.

With `Cc1ccc(F)c([C@@H](C)[C@H](NS(=O)(=O)c2ccc(Cl)c([C@@H](O)C(=O)N(C)C)c2)c2nn[nH]n2)c1C` [Example 57, (R)-2-(2-chloro-5-(N-((1S,2R)-2-(6-fluoro-2,3-dimethylphenyl)-1-(2H-tetrazol-5-yl)propyl)sulfamoyl)phenyl)-2-hydroxy-N,N-dimethylacetamide] the IC50 (RNR (RNR1:RNR2)) was 0.1 to 1 µM and the IC50 [1] was 50 to 100 µM.

`Cc1ccc(F)c([C@@H](C)[C@H](NS(=O)(=O)c2ccc(Cl)c([C@H](O)C(=O)N(C)C)c2)c2nn[nH]n2)c1C` [Example 58, (S)-2-(2-chloro-5-(N-((1S,2R)-2-(6-fluoro-2,3-dimethylphenyl)-1-(2H-tetrazol-5-yl)propyl)sulfamoyl)phenyl)-2-hydroxy-N,N-dimethylacetamide] gave an IC50 (RNR (RNR1:RNR2)) of 0.1 to 1 µM and an IC50 [1] of 50 to 100 µM.

`Cc1ccc(F)c([C@@H](C)[C@H](NS(=O)(=O)c2ccc(Cl)c(C(C)(O)C(=O)N(C)C)c2)c2nn[nH]n2)c1C` (stereo partly drawn) [Example 59, 2-(2-chloro-5-(N-((1S,2R)-2-(6-fluoro-2,3-dimethylphenyl)-1-(2H-tetrazol-5-yl)propyl)sulfamoyl)phenyl)-2-hydroxy-N,N-dimethylpropanamide] showed an IC50 (RNR (RNR1:RNR2)) of 0.1 to 1 µM and an IC50 [1] of 50 to 100 µM.

`Cc1ccc(Cl)c(S(=O)(=O)N[C@H](c2nn[nH]n2)[C@H](C)c2c(F)ccc(C)c2C)c1` [Example 60, 2-chloro-N-((1S,2R)-2-(6-fluoro-2,3-dimethylphenyl)-1-(2H-tetrazol-5-yl)propyl)-5-methylbenzenesulfonamide] gave an IC50 (RNR (RNR1:RNR2)) of 1 to 5 µM and an IC50 [1] of 50 to 100 µM.

`Cc1ccc(F)c([C@@H](C)[C@H](NS(=O)(=O)c2ccc(Cl)cc2C2CC2)c2nn[nH]n2)c1C` [Example 61, 4-chloro-2-cyclopropyl-N-((1S,2R)-2-(6-fluoro-2,3-dimethylphenyl)-1-(2H-tetrazol-5-yl)propyl)benzenesulfonamide] gave an IC50 (RNR (RNR1:RNR2)) of 0.1 to 1 µM and an IC50 [1] of 10 to 30 µM.

For `COc1nc(Cl)ccc1S(=O)(=O)N[C@H](c1nn[nH]n1)[C@H](C)c1c(F)ccc(C)c1C` [Example 62, 6-chloro-N-((1S,2R)-2-(6-fluoro-2,3-dimethylphenyl)-1-(2H-tetrazol-5-yl)propyl)-2-methoxypyridine-3-sulfonamide], the IC50 (RNR (RNR1:RNR2)) was no more than 0.1 µM and the IC50 [1] was 10 to 30 µM.

In the case of `COc1cc(C#N)ccc1S(=O)(=O)N[C@H](c1nn[nH]n1)[C@H](C)c1c(F)ccc(C)c1C` [Example 64, 4-cyano-N-((1S,2R)-2-(6-fluoro-2,3-dimethylphenyl)-1-(2H-tetrazol-5-yl)propyl)-2-methoxybenzenesulfonamide], the IC50 (RNR (RNR1:RNR2)) is reported as 0.1 to 1 µM and the IC50 [1] is reported as 50 to 100 µM.

`Cc1ccc(F)c([C@@H](C)[C@H](NS(=O)(=O)c2ccc(Cl)c(C(F)(F)C(=O)N(C)C)c2)c2nn[nH]n2)c1C` [Example 72, 2-(2-chloro-5-(N-((1S,2R)-2-(6-fluoro-2,3-dimethylphenyl)-1-(2H-tetrazol-5-yl)propyl)sulfamoyl)phenyl)-2,2-difluoro-N,N-dimethylacetamide] showed an IC50 (RNR (RNR1:RNR2)) of 0.1 to 1 µM and an IC50 [1] of 50 to 100 µM.

For `COc1c(S(=O)(=O)N[C@H](c2nn[nH]n2)[C@H](C)c2c(F)ccc(C)c2C)ccc(Cl)c1F` [Example 73, 4-chloro-3-fluoro-N-((1S,2R)-2-(6-fluoro-2,3-dimethylphenyl)-1-(2H-tetrazol-5-yl)propyl)-2-methoxybenzenesulfonamide], the IC50 (RNR (RNR1:RNR2)) was 0.1 to 1 µM and the IC50 [1] was 10 to 30 µM.

In the case of `Cc1ccc(F)c([C@@H](C)[C@H](NS(=O)(=O)c2ccc(Cl)c3c2OCCC3)c2nn[nH]n2)c1C` [Example 74, 5-chloro-N-((1S,2R)-2-(6-fluoro-2,3-dimethylphenyl)-1-(2H-tetrazol-5-yl)propyl)chromane-8-sulfonamide], the IC50 (RNR (RNR1:RNR2)) is reported as no more than 0.1 µM and the IC50 [1] is reported as no more than 10 µM.

Molecule `CNc1cc(Cl)ccc1S(=O)(=O)N[C@H](c1nn[nH]n1)[C@H](C)c1c(F)ccc(C)c1C` [Example 75, 4-chloro-N-((1S,2R)-2-(6-fluoro-2,3-dimethylpehnyl)-1-(2H-tetrazol-5-yl)propyl)-2-(methylamino)benzenesulfonamide] has an IC50 (RNR (RNR1:RNR2)) of 0.1 to 1 µM and an IC50 [1] of 10 to 30 µM.

`CNC(=O)c1cc(Cl)ccc1S(=O)(=O)N[C@H](c1nn[nH]n1)[C@H](C)c1c(F)ccc(C)c1C` [Example 76, 5-chloro-2-(N-((1S,2R)-2-(6-fluoro-2,3-dimethylphenyl)-1-(2H-tetrazol-5-yl)propyl)sulfamoyl)-N-methylbenzamide] gave an IC50 (RNR (RNR1:RNR2)) of 0.1 to 1 µM and an IC50 [1] of 50 to 100 µM.

`Cc1ccc(F)c([C@@H](C)[C@H](NS(=O)(=O)c2ccc(Cl)cc2N(C)CCO)c2nn[nH]n2)c1C` [Example 77, 4-chloro-N-((1S,2R)-2-(6-fluoro-2,3-dimethylphenyl)-1-(2H-tetrazol-5-yl)propyl)-2-((2-hydroxyethyl)(methyl)amino)benzenesulfonamide] was tested, and the IC50 (RNR (RNR1:RNR2)) was no more than 0.1 µM and the IC50 [1] was 10 to 30 µM.
